Assay results taken from patent US5599953A, “C-glycoside analogues of N-(4-hydroxyphenyl)retinamide-O-glucuronide” (The Ohio State Research Foundation, priority 1995, dated 1997).
“Also recorded” adds a separate entry of the source. Read-outs that look alike come from different tables or passages of the source.

Assays:
[1] = target: T1, human retinoic acid receptor γ (Homo sapiens, UniProt P13631); experiment: Competition binding / retinoic acid binding, human retinoic acid receptor γ/BCV (FIG. 1); settings: 1.3 nM [3H]-retinoic acid
T1 construct: made in house
T1 sequence (P13631 1-454): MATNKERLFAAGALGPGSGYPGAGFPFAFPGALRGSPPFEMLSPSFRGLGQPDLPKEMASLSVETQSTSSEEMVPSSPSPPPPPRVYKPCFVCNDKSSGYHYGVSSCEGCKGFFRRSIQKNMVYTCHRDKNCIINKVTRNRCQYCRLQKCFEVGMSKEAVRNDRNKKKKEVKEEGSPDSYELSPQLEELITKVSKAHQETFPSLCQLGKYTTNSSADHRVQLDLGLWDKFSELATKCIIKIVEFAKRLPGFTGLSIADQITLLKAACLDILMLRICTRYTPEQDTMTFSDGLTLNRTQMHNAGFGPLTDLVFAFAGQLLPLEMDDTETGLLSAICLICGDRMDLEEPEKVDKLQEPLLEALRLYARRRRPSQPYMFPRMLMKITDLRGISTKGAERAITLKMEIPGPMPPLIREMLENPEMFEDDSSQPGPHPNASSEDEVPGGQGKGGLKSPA

β-glucuronidase = target: T2, β-glucuronidase (Homo sapiens, UniProt P08236); experiment: Stability toward β-glucuronidase mediated hydrolysis; assay type: in vitro ADME; settings: within twenty minutes
T2 sequence (P08236 23-651): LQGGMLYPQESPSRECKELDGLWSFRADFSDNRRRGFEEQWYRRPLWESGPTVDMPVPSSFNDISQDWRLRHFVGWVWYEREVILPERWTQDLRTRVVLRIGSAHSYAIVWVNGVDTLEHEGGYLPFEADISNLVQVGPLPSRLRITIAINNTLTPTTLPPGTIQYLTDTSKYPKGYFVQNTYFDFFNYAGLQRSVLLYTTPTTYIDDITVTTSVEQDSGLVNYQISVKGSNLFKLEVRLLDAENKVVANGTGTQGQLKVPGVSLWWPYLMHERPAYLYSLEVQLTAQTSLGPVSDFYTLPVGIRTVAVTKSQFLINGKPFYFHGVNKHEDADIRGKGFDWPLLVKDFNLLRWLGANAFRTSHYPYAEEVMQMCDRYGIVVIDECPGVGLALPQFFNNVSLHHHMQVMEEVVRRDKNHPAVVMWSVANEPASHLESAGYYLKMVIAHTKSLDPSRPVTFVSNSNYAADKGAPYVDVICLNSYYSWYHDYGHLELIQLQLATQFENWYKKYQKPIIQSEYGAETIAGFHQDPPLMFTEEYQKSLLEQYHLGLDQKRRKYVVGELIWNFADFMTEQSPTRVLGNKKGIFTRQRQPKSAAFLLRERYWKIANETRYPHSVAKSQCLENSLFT
Description: Similarly 1-(D-glucopyranosyluronosyl) retinamide and RAG were evaluated for their stability toward β-glucuronidase medicated hydrolysis under the same conditions as described above.

[2] = Acid stability, 0.1N HCl at 37° C. for two hours; assay type: physicochemical
Description: Similarly, 1-(D-glucopyranosyluronosyl) retinamide and RAG were treated with 0.1N HCl at 37° C. for two hours.

[3] = test system: DMBA-Induced Rat Mammary Tumors; experiment: Effect on progression of DMBA-induced rat mammary tumors; assay type: in vivo; settings: 1 mmol/Kg in diet; for tumor latency: 15 mg DMBA oral; for tumor incidents / tumor number/rat: 110 days post intubation
From the text: The control rats received DMBA intubation only and AIN-76A rat chow.

[4] = test system: cultured human breast cancer cells; settings: Bhatnagar et al.; cited from earlier work
[5] = test system: carcinogen-induced rat mammary tumors; settings: cited from earlier work
MCF-7 cells = experiment: Growth inhibition of MCF-7 human mammary tumor cells; assay type: cell-based; settings: Homo sapiens, MCF7, 168 h, 7 days, read-out: ED50 for growth inhibition of MCF-7 cells
Description: The antiproliferative activity of the drugs in MCF-7 human mammary tumor cell culture models were determined.
The MCF-7 cells were obtained originally from the Michigan Cancer Foundation. The cells were routinely grown as monolayers in T-25 plastic tissue culture flasks from Falcon, in Oxnard, Calif. containing 5.0 mL of B-10 medium consisting of Minimum Essential Medium (MEM, Earle's Base) supplemented with 1.0 mM MEM non-essential amino acid, 2.0 mM 1-glutamine,10% fetal bovine serum (FBS), and antibiotics. Culture conditions included a humidified atmosphere of 5% CO2 at 37° C. One-half of the medium was replenished twice a week. Cells were harvested by trypsinization upon confluency. All variables were evaluated in triplicate.
For the growth inhibition assay the MCF-7 cells were plated in 24-well plates at a density of 1.5×10^4 cells/cm^2. […] Control cultures were treated with an equivalent volume of absolute ethanol. On day 7 the cells were harvested by trypsinization and viability was assessed by trypan blue exclusion according to Ueda, H. et al. Cancer 1980, 46, 2203-2209. Total cell counts were obtained using a hemocytometer as well as a the Coulter Counter.

mRARα = target: T3, mRARα (Mus musculus, UniProt P11416); experiment: Drug competition with (3H)retinoic acid binding, mRARα; settings: read-out: percent reduction of binding of the (3H)retinoic acid, mRARα
T3 construct: made in house; host or cells: Spodoptera frugiperda insect cells, baculovirus (whole cell extract)
T3 sequence (P11416 1-462): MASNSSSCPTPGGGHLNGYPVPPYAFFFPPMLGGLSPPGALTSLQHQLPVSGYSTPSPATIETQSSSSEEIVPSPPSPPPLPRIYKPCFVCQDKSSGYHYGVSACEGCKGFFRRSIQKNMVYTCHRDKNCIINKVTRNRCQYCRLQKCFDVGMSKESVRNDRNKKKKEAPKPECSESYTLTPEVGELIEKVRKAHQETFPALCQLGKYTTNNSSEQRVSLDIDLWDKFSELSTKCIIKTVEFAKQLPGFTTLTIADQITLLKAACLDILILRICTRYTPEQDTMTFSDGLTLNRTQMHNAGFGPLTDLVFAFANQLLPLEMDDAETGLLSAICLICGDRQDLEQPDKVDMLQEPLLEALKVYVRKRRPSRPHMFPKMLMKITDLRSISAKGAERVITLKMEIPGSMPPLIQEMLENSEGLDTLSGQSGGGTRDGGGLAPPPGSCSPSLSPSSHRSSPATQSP

mRARβ = target: T4, mRARβ (Mus musculus, UniProt P22605); experiment: Drug competition with (3H)retinoic acid binding, mRARβ; settings: read-out: percent reduction of binding of the (3H)retinoic acid, mRARβ; 1 μM drug; 5 nM [3H]RA
T4 construct: made in house; host or cells: Spodoptera frugiperda insect cells, baculovirus (whole cell extract)
T4 sequence (P22605 1-448 isoform P22605-3): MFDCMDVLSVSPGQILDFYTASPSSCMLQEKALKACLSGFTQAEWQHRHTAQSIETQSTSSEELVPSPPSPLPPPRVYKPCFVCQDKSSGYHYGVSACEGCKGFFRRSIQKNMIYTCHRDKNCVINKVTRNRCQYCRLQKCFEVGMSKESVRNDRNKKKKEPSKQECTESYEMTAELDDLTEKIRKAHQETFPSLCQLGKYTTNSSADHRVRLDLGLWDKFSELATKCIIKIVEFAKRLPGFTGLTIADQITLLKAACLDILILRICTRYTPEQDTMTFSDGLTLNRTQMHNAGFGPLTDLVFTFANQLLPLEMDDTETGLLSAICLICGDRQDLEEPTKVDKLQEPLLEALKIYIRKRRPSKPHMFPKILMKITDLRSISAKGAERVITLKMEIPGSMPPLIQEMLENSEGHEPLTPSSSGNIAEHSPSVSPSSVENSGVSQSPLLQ

mRARγ = target: T5, mRARγ (Mus musculus, UniProt P18911); experiment: Drug competition with (3H)retinoic acid binding, mRARγ; settings: read-out: percent reduction of binding of the (3H)retinoic acid, mRARγ; 1 μM drug; 5 nM [3H]RA
T5 construct: made in house; host or cells: Spodoptera frugiperda insect cells, baculovirus (whole cell extract)
T5 sequence (P18911 1-458): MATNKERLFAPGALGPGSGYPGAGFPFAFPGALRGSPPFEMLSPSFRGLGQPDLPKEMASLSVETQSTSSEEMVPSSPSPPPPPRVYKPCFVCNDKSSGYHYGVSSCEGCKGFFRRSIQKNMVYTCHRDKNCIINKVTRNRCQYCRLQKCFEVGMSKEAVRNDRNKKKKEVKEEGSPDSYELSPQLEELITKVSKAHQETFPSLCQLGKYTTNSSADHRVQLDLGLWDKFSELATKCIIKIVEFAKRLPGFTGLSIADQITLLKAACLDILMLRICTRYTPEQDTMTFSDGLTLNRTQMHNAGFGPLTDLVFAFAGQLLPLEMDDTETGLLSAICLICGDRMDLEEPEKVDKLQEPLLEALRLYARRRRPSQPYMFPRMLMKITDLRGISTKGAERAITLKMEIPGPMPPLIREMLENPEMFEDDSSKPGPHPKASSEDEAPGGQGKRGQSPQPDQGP

cancer = settings: literature; cited from earlier work
[6] = test system: hamster tracheal in vitamin A deficient epithelial tissue; settings: Newton et al.; cited from earlier work
[7] = substrate: CC1=C(/C=C/C(C)=C/C=C/C(C)=C/C(=O)Nc2ccc(O[C@@H]3O[C@H](C(=O)O)[C@@H](O)[C@H](O)[C@H]3O)cc2)C(C)(C)CCC1; experiment: Inhibition of β-glucuronidase mediated hydrolysis of 4-HPR-O-glucuronide; assay type: biochemical; settings: other: 4-HPR-O-glucuronide as substrate
From the text: Chem. Soc., (1954), 76, 4872-4877.

Molecule: CC1=C(/C=C/C(C)=C/C=C/C(C)=C/C(=O)NC2O[C@H](C(=O)O)[C@@H](O)[C@H](O)[C@H]2O)C(C)(C)CCC1 (stereo partly drawn) [1-(D-glucopyranosyluronosyl) retinamide]
- Ki [1]: 0.28 µM
- hydrolysis by β-glucuronidase within twenty minutes (β-glucuronidase): remained intact
- acid stability [2]: remained intact
- effect on DMBA-induced mammary tumor development, in words [3]: significantly prolonged the latency period of mammary cancer; also recorded: tumor induction was markedly delayed and reduced; also recorded: caused the largest reduction in multiple mammary tumors; also recorded: greater mammary tumor chemopreventive effect than does retinoic acid; also recorded: inhibit DMBA induced mammary tumor development
- tumor latency [3]: 64 days
- tumor incidents [3]: 50%
- tumor number/rat [3]: 0.83 tumors per rat

Molecule: CC1=C(/C=C/C(C)=C/C=C/C(C)=C/C(=O)Nc2ccc(O)cc2)C(C)(C)CCC1 [Example 4-HPR, N-(4-hydroxyphenyl) retinamide, reference compound]
- cytotoxicity [4]: significant cytotoxicity
- breast cancer chemopreventive activity combined with calcium glucarate [5]: synergistically exerts an increased breast cancer chemopreventive activity
- IC50 (MCF-7 cells; Assay 1): 2.8 µM
- IC50 (MCF-7 cells; Assay 2): 1.5 µM
- IC50 (MCF-7 cells; Assay 3): 33 µM
- inhibition at 1 µM (mRARα; 1 μM drug, 5 nM [3H]RA): 18%
- inhibition at 1 µM (mRARβ): 5%
- inhibition at 1 µM (mRARγ): 7%
- cancer preventive activity (cancer): displays chemopreventive activity in breast cancer

Molecule: CC1=C(/C=C/C(C)=C/C=C/C(C)=C/C(=O)O)C(C)(C)CCC1 [retinoic acid, reference compound]
- inhibition at 1 µM (mRARα): 100%
- reversal of metaplastic condition [6]: can reverse the metaplastic condition of hamster tracheal in vitamin A deficient epithelial tissue
- tumor latency [3]: 49 days
- tumor incidents [3]: 83%
- tumor number/rat [3]: 1.17 tumors per rat
- inhibition at 1 µM (mRARγ): 100%
- cancer preventive activity (cancer): display cancer preventive activity

B1: β-glucuronidase (Homo sapiens) (protein)
chain: LQGGMLYPQESPSRECKELDGLWSFRADFSDNRRRGFEEQWYRRPLWESGPTVDMPVPSSFNDISQDWRLRHFVGWVWYEREVILPERWTQDLRTRVVLRIGSAHSYAIVWVNGVDTLEHEGGYLPFEADISNLVQVGPLPSRLRITIAINNTLTPTTLPPGTIQYLTDTSKYPKGYFVQNTYFDFFNYAGLQRSVLLYTTPTTYIDDITVTTSVEQDSGLVNYQISVKGSNLFKLEVRLLDAENKVVANGTGTQGQLKVPGVSLWWPYLMHERPAYLYSLEVQLTAQTSLGPVSDFYTLPVGIRTVAVTKSQFLINGKPFYFHGVNKHEDADIRGKGFDWPLLVKDFNLLRWLGANAFRTSHYPYAEEVMQMCDRYGIVVIDECPGVGLALPQFFNNVSLHHHMQVMEEVVRRDKNHPAVVMWSVANEPASHLESAGYYLKMVIAHTKSLDPSRPVTFVSNSNYAADKGAPYVDVICLNSYYSWYHDYGHLELIQLQLATQFENWYKKYQKPIIQSEYGAETIAGFHQDPPLMFTEEYQKSLLEQYHLGLDQKRRKYVVGELIWNFADFMTEQSPTRVLGNKKGIFTRQRQPKSAAFLLRERYWKIANETRYPHSVAKSQCLENSLFT
- Km [7]: 184.5 µM
